In US9399788B2, “Method for inspecting susceptibility of bacteria or fungi to antimicrobial drug and system for use in the same” (priority 2011, dated 2016):
In brackets after ≈: the same amount, converted by molar mass.

Columns and labels:
[1] = tested on: #2 strain of Pseudomonas aeruginosa (multi-drug resistant strain); assay: MIC by method using micro-device 1 (microscope observation of growth and shape in flow channel); type: cell-based; conditions: for MIC: Pseudomonas aeruginosa, read-out: MIC (minimum inhibitory concentration)
Description: Thus, antimicrobial drug solutions were prepared.
Pseudomonas aeruginosa was pre-cultured at 37° C. for 24 hours using a Mueller-Hinton Agar (Becton, Dickinson and Company) plate. A colony was suspended in a Mueller-Hinton broth so as to have MacFarland=0.5 (OD600=0.132). As Pseudomonas aeruginosa, multi-drug resistant strains #2 and #5 (available from BML) and an S1 strain (susceptibility strain, available from BML) were used.
The antimicrobial drug solution obtained in the (2) above and the culture solution obtained in the (3) above were mixed at a volume ratio of 1 9, and 1 μL of a resultant mixture was injected into each inlet of a micro-device 1. As a control, sterile water as a substitute for the antimicrobial drug solution and the culture solution were mixed at a volume ratio of 1:9, and 1 μL of a resultant mixture was injected into an inlet of the micro-device 1. Then, the micro-device 1 was placed in a petri dish, and the petri dish was placed in an airtight container. Kimwipe (Trade Mark) containing water was placed in each of the petri dish and the airtight container. The airtight container was placed in an incubator at 37° C. and incubated for 3 hours. The relative humidity of each of the airtight container and the petri dish was 97%.
The micro-device 1 was taken out of the airtight container, and an increase or decrease in the amount of bacteria and a change in shape relative to the control in an observation area was checked by a microscope, and the MIC (minimum inhibitory concentration) was determined.

[2] = tested on: #2 strain of Pseudomonas aeruginosa (multi-drug resistant strain); assay: MIC by broth microdilution method according to the CLSI standards (standard method); type: cell-based
[3] = method using the micro-device, 37° C., 3 hours incubation

| Compound | MIC [1, 3] | MIC ([2]; Pseudomonas aeruginosa, standard method (broth microdilution, CLSI), read-out: MIC (minimum inhibitory concentration)) | determination based on the break point of CLSI ([1]; MIC by method using the micro-device) | MIC (minimum inhibitory concentration) [1, 3] | determination based on the break point of CLSI ([2]; MIC by standard method) | MIC (minimum inhibitory concentration) ([2]; standard method (broth microdilution, CLSI)) |
| --- | --- | --- | --- | --- | --- | --- |
| NCC[C@H](O)C(=O)N[C@@H]1C[C@H](N)[C@@H](O[C@H]2O[C@H](CN)[C@@H](O)[C@H](O)[C@H]2O)[C@H](O)[C@H]1O[C@H]1O[C@H](CO)[C@@H](O)[C@H](N)[C@H]1O [AMK, Amikacin] | ≥ 32 µg/mL | 64 µg/mL (≈ 109 µM) |  |  |  |  |
| O=C(O)c1cn(C2CC2)c2cc(N3CCNCC3)c(F)cc2c1=O [CPFX, Ciprofloxacin] | ≥ 4 µg/mL |  |  |  |  |  |
| Imipenem/Cilastatin [IPM] |  |  | Resistance (R) | 16 µg/mL | Resistance (R) | 32 µg/mL |
